Assay results reported in PMC10485906, “Development of a Dihydroquinoline–Pyrazoline GluN2C/2D-Selective Negative Allosteric Modulator of the N-Methyl-D-aspartate Receptor” (ACS Chemical Neuroscience, 2023).
Values joined by “and” are separate entries in the source; they are usually repeats but may differ in a detail not shown here. Equal entries are not always repeated. Marks after values point to notes of the source that are not given here.

Tests used:
Assay type in all cases: cell-based
[1] = target: GluN1/GluN2D (Rattus norvegicus, UniProt P35439+Q62645); assay: Two-electrode voltage-clamp recordings, Xenopus laevis oocytes, GluN1/GluN2D; parameters: GluN2B (NM_012574.1), GluN2C (NM_012575.3), and GluN2D (NM_022797.2) were provided by; expressed in transfected cells; host or cells: Xenopus laevis oocytes (cRNA injection); settings: 100 μM glutamate, 30 μM glycine; for remaining activity at 30 µM: 30 μM test compound, mean ± SEM, read-out: I 30 μM / I control GluN2D; for IC50: read-out: IC50 GluN2D [95% CI]
Chain of GluN1/GluN2D (Rattus norvegicus, UniProt P35439+Q62645) (Q62645 28-1323, other chains not shown): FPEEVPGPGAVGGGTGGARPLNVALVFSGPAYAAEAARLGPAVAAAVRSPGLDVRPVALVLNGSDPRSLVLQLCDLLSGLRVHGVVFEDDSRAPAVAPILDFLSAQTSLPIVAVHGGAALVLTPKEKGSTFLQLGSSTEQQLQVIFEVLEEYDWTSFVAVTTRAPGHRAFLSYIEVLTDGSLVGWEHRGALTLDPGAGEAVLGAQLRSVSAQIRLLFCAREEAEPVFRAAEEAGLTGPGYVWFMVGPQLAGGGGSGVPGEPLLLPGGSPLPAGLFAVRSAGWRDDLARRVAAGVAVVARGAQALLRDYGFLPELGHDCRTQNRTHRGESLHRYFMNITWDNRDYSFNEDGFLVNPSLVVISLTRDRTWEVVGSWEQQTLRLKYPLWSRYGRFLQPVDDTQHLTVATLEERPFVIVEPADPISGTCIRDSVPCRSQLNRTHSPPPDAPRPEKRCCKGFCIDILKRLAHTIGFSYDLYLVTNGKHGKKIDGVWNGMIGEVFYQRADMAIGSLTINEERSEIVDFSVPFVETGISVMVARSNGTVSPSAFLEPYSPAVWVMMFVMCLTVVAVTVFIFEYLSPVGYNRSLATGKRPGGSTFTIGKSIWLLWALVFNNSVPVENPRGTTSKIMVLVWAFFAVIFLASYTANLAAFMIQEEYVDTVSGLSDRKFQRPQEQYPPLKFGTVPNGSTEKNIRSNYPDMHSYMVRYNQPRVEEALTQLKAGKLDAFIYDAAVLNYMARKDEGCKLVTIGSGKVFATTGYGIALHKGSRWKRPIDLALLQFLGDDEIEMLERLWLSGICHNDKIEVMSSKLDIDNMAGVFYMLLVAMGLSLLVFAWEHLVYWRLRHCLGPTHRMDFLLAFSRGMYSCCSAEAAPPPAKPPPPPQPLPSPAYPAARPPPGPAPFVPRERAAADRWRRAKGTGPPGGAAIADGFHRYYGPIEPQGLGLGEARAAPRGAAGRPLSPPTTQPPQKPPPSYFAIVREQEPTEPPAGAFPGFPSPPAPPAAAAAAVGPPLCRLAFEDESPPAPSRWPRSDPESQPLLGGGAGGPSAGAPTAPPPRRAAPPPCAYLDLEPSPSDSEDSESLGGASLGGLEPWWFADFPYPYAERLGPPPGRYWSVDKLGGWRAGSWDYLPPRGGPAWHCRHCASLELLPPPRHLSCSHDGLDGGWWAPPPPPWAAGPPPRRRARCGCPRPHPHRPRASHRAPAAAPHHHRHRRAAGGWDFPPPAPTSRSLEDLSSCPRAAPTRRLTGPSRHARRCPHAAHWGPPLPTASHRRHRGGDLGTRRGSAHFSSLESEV
Protocol: (§1) All target compounds were evaluated for NMDAR antagonism using two-electrode voltage-clamp recordings from Xenopus laevis oocytes coexpressing recombinant GluN1 and GluN2A-D subunits (Table 1).[32],[42],[33] All analogues were assessed as either a racemic (2b, 2e–2r) or diastereomeric (2d) mixture to simplify purification and streamline in vitro analysis. […] Moreover, as illustrated by the significant loss of NMDAR activity observed with nitrile 2e, the DQP allosteric site necessitated an H-bond donor/acceptor relationship at the carboxylate position. […] The loss of NMDAR activity observed with the trifluoro analogue 2j (Table S1) reinforced the necessity for an H-bond donor/acceptor relationship to maintain allosteric binding and established that fluorine substitution alone is ineffective. […] A single methyl substitution of the amide in compound 2q improved selectivity against GluN2A and had similar potency as 2a, whereas dual methyl substitution reduced potency (2r). We expect that this is likely due to the ability of the […] of the amide to accept hydrogen bonds while the amide can readily donate a proton.
(§2) Unfertilized Xenopus laevis oocytes were obtained from Ecocyte (Austin, TX), or ovaries were purchased from Xenopus 1 (Dexter, MI) and oocytes prepared as previously described.[42],[47] Two-electrode voltage-clamp recordings were performed on oocytes expressing recombinant rat GluN1/GluN2A, GluN1/GluN2B, GluN1/GluN2C, or GluN1/GluN2D. cDNAs for rat GluN1-1a (referred to as GluN1; NCBI Reference Sequence NM_017010.2), GluN2A (NM_012573.4), GluN2B (NM_012574.1), GluN2C (NM_012575.3), and GluN2D (NM_022797.2) were provided by Dr. S. Heinemann from the Salk Institute, Dr. S. Nakanishi from Kyoto University, and Dr. P. Seeburg from the University of Heidelberg. Oocyte isolation, cRNA synthesis, and cRNA injections were performed as previously described.[32],[33],[47] Briefly, Xenopus laevis oocytes were injected with 5–10 ng of cRNA in RNase-free water with the GluN1:GluN2 ratio ranging from 1:1 to 1:5. Oocytes were incubated at 15–19 °C in Barth’s solution consisting of (in mM) 88 NaCl, 1 KCl, 2.4 NaHCO3, 10 HEPES, 0.82 MgSO4, 0.33 Ca(NO3)2, and 0.41 CaCl2 supplemented with 100 μg/mL gentamycin, 40 μg/mL streptomycin, and 50 μg/mL penicillin. Recordings were performed 2–4 days after injection with extracellular recording solution containing (in mM) 90 NaCl, 1 KCl, 10 HEPES, 0.5 BaCl2, and 0.01 EDTA at pH 7.4 adjusted with NaOH. To prevent a gradual increase in current response over the course of the experiment, some oocytes expressing GluN1/GluN2A were injected with 20–50 nL of 2–50 mM K-BAPTA. Concentration–response curves for test compounds were generated by applying a maximally effective concentration of glutamate (100 μM) and glycine (30 μM), followed by glutamate and glycine with variable concentrations of test compounds up to 30 μM. The test compounds were prepared as 20 mM stock solutions in DMSO and diluted to the final concentration in recording solution. The DMSO content was 0.05–0.5% (v/v). […] Methods for off-target analysis are given in the Supporting Information.
(§3) Confidence intervals were determined for the log(IC50). The time course of relaxation during inhibitor application or deactivation following rapid removal of NMDA or glutamate was fitted by the equation [drawing 5] 2

[2] = target: T1, GluN1/GluN2B (Rattus norvegicus, UniProt P35439+Q00960); assay: Two-electrode voltage-clamp recordings, Xenopus laevis oocytes, GluN1/GluN2B; settings: 100 μM glutamate, 30 μM glycine; for remaining activity at 30 µM: 30 μM test compound, mean ± SEM, read-out: I 30 μM / I control GluN2B; for IC50: read-out: IC50 GluN2B [95% CI]
T1 construct: GluN2B (NM_012574.1), GluN2C (NM_012575.3), and GluN2D (NM_022797.2) were provided by; expressed in transfected cells; host or cells: Xenopus laevis oocytes (cRNA injection)
T1 sequence (Q00960 27-1482, other chains not shown): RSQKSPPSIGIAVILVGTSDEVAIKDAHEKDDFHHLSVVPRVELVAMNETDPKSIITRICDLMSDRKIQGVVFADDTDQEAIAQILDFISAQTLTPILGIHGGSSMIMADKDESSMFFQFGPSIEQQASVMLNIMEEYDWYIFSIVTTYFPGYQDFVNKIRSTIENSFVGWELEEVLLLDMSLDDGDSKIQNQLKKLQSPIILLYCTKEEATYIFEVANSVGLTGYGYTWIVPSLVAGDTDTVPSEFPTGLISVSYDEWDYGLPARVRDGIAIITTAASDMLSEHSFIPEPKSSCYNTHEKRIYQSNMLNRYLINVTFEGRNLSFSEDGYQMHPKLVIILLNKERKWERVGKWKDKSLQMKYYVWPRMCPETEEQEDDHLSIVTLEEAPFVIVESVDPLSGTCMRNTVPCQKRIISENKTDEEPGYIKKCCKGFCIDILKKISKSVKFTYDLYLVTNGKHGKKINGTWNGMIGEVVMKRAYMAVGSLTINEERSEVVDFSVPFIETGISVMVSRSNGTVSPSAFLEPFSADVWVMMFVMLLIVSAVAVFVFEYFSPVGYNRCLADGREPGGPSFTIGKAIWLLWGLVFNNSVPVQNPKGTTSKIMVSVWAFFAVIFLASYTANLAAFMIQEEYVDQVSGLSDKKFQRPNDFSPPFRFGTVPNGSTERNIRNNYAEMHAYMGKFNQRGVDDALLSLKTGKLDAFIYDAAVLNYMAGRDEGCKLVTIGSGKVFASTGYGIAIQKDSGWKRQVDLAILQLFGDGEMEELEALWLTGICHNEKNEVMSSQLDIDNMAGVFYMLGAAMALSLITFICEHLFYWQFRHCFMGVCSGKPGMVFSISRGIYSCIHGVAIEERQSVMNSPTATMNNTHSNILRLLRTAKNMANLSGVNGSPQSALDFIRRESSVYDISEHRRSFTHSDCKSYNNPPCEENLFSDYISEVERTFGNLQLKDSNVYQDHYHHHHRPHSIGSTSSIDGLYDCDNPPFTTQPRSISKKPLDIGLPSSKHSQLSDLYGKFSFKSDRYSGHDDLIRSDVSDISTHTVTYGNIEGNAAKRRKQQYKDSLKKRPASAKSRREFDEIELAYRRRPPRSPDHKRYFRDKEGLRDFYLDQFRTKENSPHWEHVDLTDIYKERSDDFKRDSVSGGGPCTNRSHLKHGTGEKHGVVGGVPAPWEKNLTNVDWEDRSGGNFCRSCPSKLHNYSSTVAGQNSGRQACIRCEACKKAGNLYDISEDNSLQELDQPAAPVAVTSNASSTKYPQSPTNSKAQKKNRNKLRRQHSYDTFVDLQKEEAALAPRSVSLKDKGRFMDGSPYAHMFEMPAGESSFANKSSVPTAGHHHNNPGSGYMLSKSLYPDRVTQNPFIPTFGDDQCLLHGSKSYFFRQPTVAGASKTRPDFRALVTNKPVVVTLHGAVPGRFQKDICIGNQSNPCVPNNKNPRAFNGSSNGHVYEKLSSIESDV
Protocol: as §1, §2, §3

[3] = target: GluN1/GluN2D (Rattus norvegicus, UniProt Q62645); assay: Two-electrode voltage-clamp recordings, Xenopus laevis oocytes, GluN1/GluN2D; parameters: GluN2B (NM_012574.1), GluN2C (NM_012575.3), and GluN2D (NM_022797.2) were provided by; expressed in transfected cells; host or cells: Xenopus laevis oocytes (cRNA injection); settings: for I / I control GluN2D: tested at 10 μM (footnote b); for I / I control GluN2D / I3 μM/Icontrol GluN2D: 100 μM glutamate, 30 μM glycine; for Selectivity 2A IC50 / 2D IC50: GluN2D over GluN2A; for Selectivity 2B IC50 / 2D IC50: GluN2D over GluN2B; for I3 μM/Icontrol GluN2D: tested at 3 μM
Chain of GluN1/GluN2D (Rattus norvegicus, UniProt Q62645) (Q62645 28-1323, other chains not shown): as the sequence (Q62645 28-1323, other chains not shown) above
Protocol: as §1, §2, §3

[4] = target: T2, GluN1/GluN2B (Rattus norvegicus, UniProt Q00960); assay: Two-electrode voltage-clamp recordings, Xenopus laevis oocytes, GluN1/GluN2B; settings: mean ± SEM; for I / I control GluN2B: tested at 10 μM (footnote b); for I / I control GluN2B / I3 μM/Icontrol GluN2B: 100 μM glutamate, 30 μM glycine; for I3 μM/Icontrol GluN2B: tested at 3 μM
T2 construct: GluN2B (NM_012574.1), GluN2C (NM_012575.3), and GluN2D (NM_022797.2) were provided by; expressed in transfected cells; host or cells: Xenopus laevis oocytes (cRNA injection)
T2 sequence (Q00960 27-1482, other chains not shown): as the sequence (Q00960 27-1482, other chains not shown) above
Protocol: as §1, §2, §3

| SMILES | remaining activity at 30 µM [1] [%] | remaining activity at 30 µM [2] [%] | I / I control GluN2D ([3]; mean ± SEM) | I / I control GluN2B [4] | Selectivity 2A IC50 / 2D IC50 [3] [fold] | Selectivity 2B IC50 / 2D IC50 [3] [fold] | I3 μM/Icontrol GluN2D ([3]; mean ± SEM) | IC50 [1] [nM] | I3 μM/Icontrol GluN2B [4] | IC50 [2] [nM] | also measured |
| --- | --- | --- | --- | --- | --- | --- | --- | --- | --- | --- | --- |
| O=C(CC(F)(F)C(=O)N1N=C(c2c(-c3ccc(Cl)cc3)c3ccccc3[nH]c2=O)CC1c1ccc(Cl)cc1)OCC1CC1 (stereo not drawn) [2n] | 92 ± 2.7 | 92 ± 2.1 |  |  |  |  |  |  |  |  |  |
| CC(C)(C)COC(=O)CC(F)(F)C(=O)N1N=C(c2c(-c3ccc(Cl)cc3)c3ccccc3[nH]c2=O)CC1c1ccc(Cl)cc1 (stereo not drawn) [2o] |  |  | 82 ± 0.7% | 94 ± 1.0% |  |  |  |  |  |  |  |
| O=C(O)CC(F)(F)C(=O)N1N=C(c2c(-c3ccc(Cl)cc3)c3ccccc3[nH]c2=O)CC1c1ccc(Cl)cc1 (stereo not drawn) [2i] |  |  |  |  | 43 | 123 | 12 ± 1.8% and 12 ± 1.8 ^b (2,16) % | 130 | 78 ± 2.9% and 78 ± 2.9 ^b (2,10) % | 16000 | I3 μM/Icontrol GluN2D ([3]; mean ± SEM, listed as racemic 2i): 12 ± 1.8 (2, 16) %; I3 μM/Icontrol GluN2B ([4]; listed as racemic 2i): 78 ± 2.9 (2, 10) % |
| O=C(CC(F)(F)C(=O)N1N=C(c2c(-c3ccc(Cl)cc3)c3ccccc3[nH]c2=O)CC1c1ccc(Cl)cc1)OCc1ccccc1 (stereo not drawn) [2p] | 96 ± 0.53 | 103 ± 2.1 |  |  |  |  |  |  |  |  |  |
| CN(C)C(=O)CC(F)(F)C(=O)N1N=C(c2c(-c3ccc(Cl)cc3)c3ccccc3[nH]c2=O)CC1c1ccc(Cl)cc1 (stereo not drawn) [2r] |  |  | 19 ± 1.6 ^b (3,14) % | 78 ± 4.2 ^b (4,22) % |  |  |  | 1400 |  |  |  |
| CCOC(=O)CC(F)(F)C(=O)N1N=C(c2c(-c3ccc(Cl)cc3)c3ccccc3[nH]c2=O)CC1c1ccc(Cl)cc1 (stereo not drawn) [2l] | 87 ± 0.8 | 97 ± 2 |  |  |  |  |  |  |  |  |  |
| CC(C)OC(=O)CC(F)(F)C(=O)N1N=C(c2c(-c3ccc(Cl)cc3)c3ccccc3[nH]c2=O)CC1c1ccc(Cl)cc1 (stereo not drawn) [2m] | 92 ± 3.1 | 88 ± 1.3 |  |  |  |  |  |  |  |  |  |
| O=C(O)CC(F)(F)C(=O)N1N=C(c2c(-c3ccc(Cl)cc3)c3ccccc3[nH]c2=O)C[C@H]1c1ccc(Cl)cc1 [(S)-(−)-2i] |  |  |  |  | 134 | 457 | 3.8 ± 0.60 (4, 25) % | 35 | 89 ± 6.2 (3, 18) % | 16000 | % control GluN1/GluN2D ([3]; 1 µM compound, 100 µM glutamate, 30 µM glycine, mean ± SEM): 4.3 ± 0.73%; fold more potent than (S)-2a ([3]; abstract): 5 fold; % control GluN1/GluN2B ([4]; 1 µM compound, 100 µM glutamate, 30 µM glycine): 90 ± 3.5% |
| NC(=O)CC(F)(F)C(=O)N1N=C(c2c(-c3ccc(Cl)cc3)c3ccccc3[nH]c2=O)CC1c1ccc(Cl)cc1 (stereo not drawn) [2k] |  |  |  |  | 24 | 13 | 16 ± 2.3 ^b (3,17) % | 240 | 28 ± 4.5 ^b (3,10) % | 3100 |  |
| CNC(=O)CC(F)(F)C(=O)N1N=C(c2c(-c3ccc(Cl)cc3)c3ccccc3[nH]c2=O)CC1c1ccc(Cl)cc1 (stereo not drawn) [2q] |  |  | 12 ± 1.5 ^b (3, 18) % | 81 ± 8.7 ^b (3, 10) % | 90 | 49 |  | 410 |  | 20000 |  |
